Where a name gives a salt, the structure may show the parent alone.
Test system: mice
Experiment: Neuropharmacological Assay (SmartCube)
Format: in vivo
Conditions: i.p. 15 min before behavioral test; 3 doses, most efficacious dose(s) presented

SMILES | AD: ADHD (probability of class match) | AG: analgesic (probability of class match) | AX: anxiolytic (probability of class match) | CE: cognitive enhancer (probability of class match) | DP: anti-depressant (probability of class match) | HA: hallucinogen (probability of class match) | MS: mood stabilizer (probability of class match) | PS: anti-psychotic (probability of class match) | SD: sedative hypnotic (probability of class match) | UN: uncharacterized CNS activity (probability of class match) | XG: anxiogenic (probability of class match)
CN(CC1OCCn2nc3ccccc3c21)C1CC1 (stereo not drawn) [Compound 22, N-((3,4-dihydro-1H-[1,4]oxazino[4,3-b]indazol-1-yl)methyl)-N-methylcyclopropanamine hydrogen chloride salt] | ++ (5%≦ ++ <25%) | + (LOQ≦ + <5%) | ++ (5%≦ ++ <25%) | + (LOQ≦ + <5%) | ++++ (50%≦ ++++) | ++ (5%≦ ++ <25%) | + (LOQ≦ + <5%) | + (LOQ≦ + <5%) | + (LOQ≦ + <5%) | ++ (5%≦ ++ <25%) | + (LOQ≦ + <5%)
CN1CCC2(C1)OCCn1nc3ccccc3c12.Cl (stereo not drawn) [Compound 23, 1′-methyl-3,4-dihydrospiro[[1,4]oxazino[4,3-b]indazole-1,3′-pyrrolidin]-1′-ium chloride] | + (LOQ≦ + <5%) | ++ (5%≦ ++ <25%) | ++++ (50%≦ ++++) | ++ (5%≦ ++ <25%) | ++ (5%≦ ++ <25%) | + (LOQ≦ + <5%) | + (LOQ≦ + <5%) | + (LOQ≦ + <5%) | + (LOQ≦ + <5%) | + (LOQ≦ + <5%) | + (LOQ≦ + <5%)
CN1CCC2(CC1)OCCn1nc3ccccc3c12.Cl [Compound 24, 1′-methyl-3,4-dihydrospiro[[1,4]oxazino[4,3-b]indazole-1,4′-piperidin]-1′-ium chloride] | + (LOQ≦ + <5%) | ++ (5%≦ ++ <25%) | ++ (5%≦ ++ <25%) | ++ (5%≦ ++ <25%) | ++ (5%≦ ++ <25%) | + (LOQ≦ + <5%) | + (LOQ≦ + <5%) | ++ (5%≦ ++ <25%) | + (LOQ≦ + <5%) | + (LOQ≦ + <5%) | + (LOQ≦ + <5%)
CN1CCO[C@@H]([C@@H]2OCCn3nc4ccccc4c32)C1 [Compound 25, (2R)-2-((R)-3,4-dihydro-1H-[1,4]oxazino[4,3-b]indazol-1-yl)-4-methylmorpholin-4-ium chloride] | ++ (5%≦ ++ <25%) | ++ (5%≦ ++ <25%) | ++ (5%≦ ++ <25%) | + (LOQ≦ + <5%) | ++ (5%≦ ++ <25%) | + (LOQ≦ + <5%) | + (LOQ≦ + <5%) | + (LOQ≦ + <5%) | + (LOQ≦ + <5%) | + (LOQ≦ + <5%) | + (LOQ≦ + <5%)
CN1CCO[C@@H]([C@H]2OCCn3nc4ccccc4c32)C1 [Compound 26, (2R)-2-((S)-3,4-dihydro-1H-[1,4]oxazino[4,3-b]indazol-1-yl)-4-methylmorpholin-4-ium chloride] | + (LOQ≦ + <5%) | ++ (5%≦ ++ <25%) | + (LOQ≦ + <5%) | + (LOQ≦ + <5%) | ++ (5%≦ ++ <25%) | + (LOQ≦ + <5%) | + (LOQ≦ + <5%) | + (LOQ≦ + <5%) | + (LOQ≦ + <5%) | + (LOQ≦ + <5%) | + (LOQ≦ + <5%)
CC(C)N(C)CC1OCCn2nc3ccccc3c21.Cl (stereo not drawn) [Compound 27, N-((3,4-dihydro-1H-[1,4]oxazino[4,3-b]indazol-1-yl)methyl)-N-methylpropan-2-aminium chloride] | + (LOQ≦ + <5%) | ++ (5%≦ ++ <25%) | + (LOQ≦ + <5%) | + (LOQ≦ + <5%) | ++++ (50%≦ ++++) | + (LOQ≦ + <5%) | + (LOQ≦ + <5%) | + (LOQ≦ + <5%) | + (LOQ≦ + <5%) | + (LOQ≦ + <5%) | + (LOQ≦ + <5%)
CCN(C)CC1OCCn2nc3ccccc3c21.Cl (stereo not drawn) [Compound 28, N-((3,4-dihydro-1H-[1,4]oxazino[4,3-b]indazol-1-yl)methyl)-N-methylethanaminium chloride] | + (LOQ≦ + <5%) | + (LOQ≦ + <5%) | ++ (5%≦ ++ <25%) | ++ (5%≦ ++ <25%) | ++++ (50%≦ ++++) | ++ (5%≦ ++ <25%) | + (LOQ≦ + <5%) | + (LOQ≦ + <5%) | + (LOQ≦ + <5%) | ++ (5%≦ ++ <25%) | + (LOQ≦ + <5%)
CN(CC1OCCn2nc3ccccc3c21)C1CCC1.Cl (stereo not drawn) [Compound 29, N-((3,4-dihydro-1H-[1,4]oxazino[4,3-b]indazol-1-yl)methyl)-N-methylcyclobutanaminium chloride] | + (LOQ≦ + <5%) | + (LOQ≦ + <5%) | ++ (5%≦ ++ <25%) | ++ (5%≦ ++ <25%) | +++ (25%≦ +++ <50%) | ++ (5%≦ ++ <25%) | + (LOQ≦ + <5%) | + (LOQ≦ + <5%) | + (LOQ≦ + <5%) | + (LOQ≦ + <5%) | + (LOQ≦ + <5%)
c1ccc2c3n(nc2c1)CCOC3C1CCNCC1 (stereo not drawn) [Compound 35, 4-(3,4-dihydro-1H-[1,4]oxazino[4,3-b]indazol-1-yl)piperidin-1-ium chloride] | + (LOQ≦ + <5%) | + (LOQ≦ + <5%) | + (LOQ≦ + <5%) | + (LOQ≦ + <5%) | + (LOQ≦ + <5%) | + (LOQ≦ + <5%) | + (LOQ≦ + <5%) | + (LOQ≦ + <5%) | + (LOQ≦ + <5%) | + (LOQ≦ + <5%) | + (LOQ≦ + <5%)
c1ccc2c3n(nc2c1)CCOC31CCNCC1 [Compound 36, 3′,4′-dihydrospiro[piperidine-4,1′-[1,4]oxazino[4,3-b]indazol]-1-ium chloride] | + (LOQ≦ + <5%) | ++ (5%≦ ++ <25%) | ++ (5%≦ ++ <25%) | ++ (5%≦ ++ <25%) | +++ (25%≦ +++ <50%) | + (LOQ≦ + <5%) | + (LOQ≦ + <5%) | ++ (5%≦ ++ <25%) | ++ (5%≦ ++ <25%) | ++ (5%≦ ++ <25%) | + (LOQ≦ + <5%)
Cl.c1ccc2c3n(nc2c1)CCOC31CN2CCC1C2 (stereo not drawn) [Compound 37, 3′,4′-dihydro-4-azaspiro[bicyclo[2.2.1]heptane-2,1′-[1,4]oxazino[4,3-b]indazol]-4-ium chloride] | + (LOQ≦ + <5%) | ++ (5%≦ ++ <25%) | ++ (5%≦ ++ <25%) | ++ (5%≦ ++ <25%) | ++ (5%≦ ++ <25%) | + (LOQ≦ + <5%) | + (LOQ≦ + <5%) | ++ (5%≦ ++ <25%) | ++ (5%≦ ++ <25%) | +++ (25%≦ +++ <50%) | + (LOQ≦ + <5%)
Cl.c1ccc2c3n(nc2c1)CCOC3[C@H]1CCCNC1 (stereo partly drawn) [Compound 38, (3S)-3-(3,4-dihydro-1H-[1,4]oxazino[4,3-b]indazol-1-yl)piperidin-1-ium] | + (LOQ≦ + <5%) | ++ (5%≦ ++ <25%) | ++ (5%≦ ++ <25%) | + (LOQ≦ + <5%) | + (LOQ≦ + <5%) | + (LOQ≦ + <5%) | ++ (5%≦ ++ <25%) | ++ (5%≦ ++ <25%) | + (LOQ≦ + <5%) | + (LOQ≦ + <5%) | + (LOQ≦ + <5%)
